Experimental data reported in PMC10465233, “Lys-urea-Aad, Lys-urea-Cmc and Lys-urea-Cms as potential pharmacophores for the design of PSMA-targeted radioligands to reduce off-target uptake in kidneys and salivary glands” (Theranostics, 2023).
Values joined by “and” are separate entries in the source; they are usually repeats but may differ in a detail not shown here. Equal entries are not always repeated.

Tested on: LNCaP tumor-bearing mice
Assay: Ex vivo biodistribution in LNCaP tumor-bearing mice
Set-up: species or system mouse
Conditions: for Time of peak tumor uptake: post-injection
Method: Imaging, biodistribution and radioligand therapy experiments were performed following previously published procedures using male NOD-scid IL2Rg^null (NSG) or NOD.Cg-Rag1^tm1MomIl2rg^tm1Wjl/SzJ (NRG) mice [10]-[12],[14]-[15]. The experiments were conducted according to the guidelines established by the Canadian Council on Animal Care and approved by Animal Ethics Committee of the University of British Columbia. The mice were briefly sedated by inhalation of 2% isoflurane in oxygen, and implanted subcutaneously with 1×10^7 LNCaP cells behind the left shoulder. The mice were imaged or used in biodistribution studies when the tumor grew to 5-8 mm in diameter over a period of 4-5 weeks.
For biodistribution studies, the mice were injected with the radioligand (2-4 MBq) as described above. For blocking, the mice were co-injected with nonradioactive DCFPyL (0.5 mg). At predetermined time points, the mice were sedated by isoflurane inhalation and euthanized by CO2 inhalation. Blood was withdrawn by cardiac puncture, and organs/tissues of interest were collected, weighed and counted using an automatic gamma counter (Tables S4-S7).

## COc1ccc(CCCC(=O)NCC(=O)N[C@@H](CCCCNC(=O)CN2CCN(CC(=O)[O-])CCN(CC(=O)[O-])CCN(CC(=O)[O-])CC2)C(=O)NC[C@H]2CC[C@H](C(=O)N[C@@H](Cc3c4ccccc4cc4ccccc34)C(=O)NCCCC[C@H](NC(=O)N[C@@H](COCC(=O)O)C(=O)O)C(=O)O)CC2)cc1.[177Lu+3] [[^177Lu]Lu-HTK04028]
1 h post-injection
  Adrenal glands uptake: 3.25 ± 0.34 %ID/g
  Blood uptake: 17.7 ± 2.10 %ID/g
  Blood:Salivary gland uptake ratio: 6.93 ± 0.33
  Bone uptake: 0.99 ± 0.21 %ID/g
  Brain uptake: 0.26 ± 0.03 %ID/g
  Fat uptake: 1.26 ± 0.21 %ID/g
  Heart uptake: 4.15 ± 0.31 %ID/g
  Intestines uptake: 1.23 ± 0.24 %ID/g
  Kidneys uptake: 8.30 ± 1.58 %ID/g
  Lacrimal glands uptake: 0.51 ± 0.23 %ID/g
  Liver uptake: 2.93 ± 0.51 %ID/g
  Lungs uptake: 7.88 ± 1.77 %ID/g
  Muscle uptake: 1.32 ± 0.19 %ID/g
  Pancreas uptake: 1.53 ± 0.22 %ID/g
  Salivary glands uptake: 2.55 ± 0.21 %ID/g
  Spleen uptake: 1.53 ± 0.23 %ID/g
  Stomach uptake: 0.51 ± 0.18 %ID/g
  Testes uptake: 2.26 ± 0.46 %ID/g
  Thyroid uptake: 3.30 ± 0.42 %ID/g
  Tumor uptake: 19.0 ± 5.86 %ID/g
  Tumor:Blood uptake ratio: 1.11 ± 0.45
  Tumor:Kidney uptake ratio: 2.39 ± 0.99
  Tumor:Muscle uptake ratio: 14.5 ± 4.46
  Tumor:Salivary gland uptake ratio: 7.60 ± 2.89
4 h post-injection
  Adrenal glands uptake: 2.18 ± 0.33 %ID/g
  Blood uptake: 12.2 ± 1.66 %ID/g
  Blood:Salivary gland uptake ratio: 7.09 ± 1.45
  Bone uptake: 0.63 ± 0.10 %ID/g
  Brain uptake: 0.19 ± 0.02 %ID/g
  Fat uptake: 0.89 ± 0.24 %ID/g
  Heart uptake: 2.67 ± 0.31 %ID/g
  Intestines uptake: 1.04 ± 0.12 %ID/g
  Kidneys uptake: 9.21 ± 2.76 %ID/g
  Lacrimal glands uptake: 0.39 ± 0.19 %ID/g
  Liver uptake: 2.29 ± 0.55 %ID/g
  Lungs uptake: 5.79 ± 0.44 %ID/g
  Muscle uptake: 0.83 ± 0.09 %ID/g
  Pancreas uptake: 1.24 ± 0.04 %ID/g
  Salivary glands uptake: 1.75 ± 0.25 %ID/g
  Spleen uptake: 1.44 ± 0.31 %ID/g
  Stomach uptake: 0.45 ± 0.06 %ID/g
  Testes uptake: 2.66 ± 0.41 %ID/g
  Thyroid uptake: 2.30 ± 0.30 %ID/g
  Tumor uptake: 42.6 ± 11.6 %ID/g
  Tumor:Blood uptake ratio: 3.60 ± 1.24
  Tumor:Kidney uptake ratio: 4.89 ± 1.58
  Tumor:Muscle uptake ratio: 52.2 ± 17.4
  Tumor:Salivary gland uptake ratio: 24.5 ± 5.95
24 h post-injection
  Adrenal glands uptake: 0.73 ± 0.13 %ID/g
  Blood uptake: 0.82 ± 0.11 %ID/g
  Blood:Salivary gland uptake ratio: 1.88 ± 0.42
  Bone uptake: 0.11 ± 0.02 %ID/g
  Brain uptake: 0.02 ± 0.00 %ID/g
  Fat uptake: 0.14 ± 0.02 %ID/g
  Heart uptake: 0.36 ± 0.03 %ID/g
  Intestines uptake: 0.23 ± 0.05 %ID/g
  Kidneys uptake: 4.32 ± 0.58 %ID/g
  Lacrimal glands uptake: 0.05 ± 0.04 %ID/g
  Liver uptake: 0.54 ± 0.09 %ID/g
  Lungs uptake: 1.08 ± 0.72 %ID/g
  Muscle uptake: 0.11 ± 0.02 %ID/g
  Pancreas uptake: 0.15 ± 0.02 %ID/g
  Salivary glands uptake: 0.45 ± 0.10 %ID/g
  Spleen uptake: 0.48 ± 0.14 %ID/g
  Stomach uptake: 0.31 ± 0.10 %ID/g
  Testes uptake: 0.55 ± 0.05 %ID/g
  Thyroid uptake: 0.52 ± 0.08 %ID/g
  Tumor uptake: 30.2 ± 2.74 %ID/g
  Tumor:Blood uptake ratio: 37.2 ± 4.22
  Tumor:Kidney uptake ratio: 7.06 ± 0.86
  Tumor:Muscle uptake ratio: 275 ± 35.3
  Tumor:Salivary gland uptake ratio: 69.3 ± 15.8
72 h post-injection
  Adrenal glands uptake: 0.48 ± 0.17 %ID/g
  Blood uptake: 0.05 ± 0.01 %ID/g
  Blood:Salivary gland uptake ratio: 0.26 ± 0.06
  Bone uptake: 0.05 ± 0.02 %ID/g
  Brain uptake: 0.01 ± 0.00 %ID/g
  Fat uptake: 0.06 ± 0.02 %ID/g
  Heart uptake: 0.12 ± 0.03 %ID/g
  Intestines uptake: 0.07 ± 0.03 %ID/g
  Kidneys uptake: 1.77 ± 0.25 %ID/g
  Lacrimal glands uptake: 0.01 ± 0.01 %ID/g
  Liver uptake: 0.22 ± 0.02 %ID/g
  Lungs uptake: 0.18 ± 0.02 %ID/g
  Muscle uptake: 0.03 ± 0.01 %ID/g
  Pancreas uptake: 0.05 ± 0.01 %ID/g
  Salivary glands uptake: 0.19 ± 0.05 %ID/g
  Spleen uptake: 0.49 ± 0.16 %ID/g
  Stomach uptake: 0.07 ± 0.07 %ID/g
  Testes uptake: 0.31 ± 0.05 %ID/g
  Thyroid uptake: 0.24 ± 0.04 %ID/g
  Tumor uptake: 26.1 ± 7.29 %ID/g
  Tumor:Blood uptake ratio: 550 ± 108
  Tumor:Kidney uptake ratio: 14.6 ± 2.72
  Tumor:Muscle uptake ratio: 886 ± 181
  Tumor:Salivary gland uptake ratio: 144 ± 35.6
120 h post-injection
  Adrenal glands uptake: 0.33 ± 0.05 %ID/g
  Blood uptake: 0.02 ± 0.00 %ID/g
  Blood:Salivary gland uptake ratio: 0.17 ± 0.04
  Bone uptake: 0.04 ± 0.02 %ID/g
  Fat uptake: 0.03 ± 0.01 %ID/g
  Heart uptake: 0.07 ± 0.01 %ID/g
  Intestines uptake: 0.08 ± 0.05 %ID/g
  Kidneys uptake: 1.16 ± 0.13 %ID/g
  Liver uptake: 0.16 ± 0.02 %ID/g
  Lungs uptake: 0.09 ± 0.01 %ID/g
  Muscle uptake: 0.02 ± 0.00 %ID/g
  Pancreas uptake: 0.03 ± 0.00 %ID/g
  Salivary glands uptake: 0.11 ± 0.03 %ID/g
  Spleen uptake: 0.54 ± 0.15 %ID/g
  Stomach uptake: 0.10 ± 0.10 %ID/g
  Testes uptake: 0.22 ± 0.01 %ID/g
  Thyroid uptake: 0.13 ± 0.02 %ID/g
  Tumor uptake: ~ 28 %ID/g
  Tumor:Blood uptake ratio: 1714 ± 320
  Tumor:Kidney uptake ratio: 24.9 ± 5.16
  Tumor:Muscle uptake ratio: 1825 ± 415
  Tumor:Salivary gland uptake ratio: 284 ± 87.9
120 h post-injection, listed as [177Lu]Lu-HTK04028
  Tumor uptake: 28.4 ± 5.11 %ID/g
Peak over 1-120 h post-injection
  Peaked average tumor uptake: ~ 43 %ID/g and 42.6 %ID/g
  Time of peak tumor uptake: 4 h
Listed as 177Lu-labeled HTK04028
  Time of peak tumor uptake: 4 to 24 h
